Data reported in US20240217992A1, “RETINOIC ACID RECEPTOR AGONIST, PREPARATION METHOD THEREFOR, INTERMEDIATE, PHARMACEUTICAL COMPOSITION AND USE” (JIANGXI KERUI PHARMACEUTICAL CO., LTD., priority 2021, published 2024).

How the values were obtained:
[1] = tested on: human hepatocytes; assay: Hepatocyte stability (metabolic stability in human hepatocytes, LC-MS/MS); conditions: for Normalized area (240 minutes), prototype compound peak (molecular weight shift 0.00): human hepatocytes 1.0 × 10^6 cells/mL, 37° C.
Experimental: (§2) The metabolic stability of the compounds was tested using human hepatocytes.
(§3) • 1. The compounds and hepatocytes were incubated for 240 minutes in the following system.
(§4) The culture was inactivated with 2 volumes of acetonitrile (0.1% FA) and then centrifuged for 15 minutes at 16,000 g. • 3. The supernatant was analyzed by LC-MS/MS for prototype compounds and metabolites.

[2] = molecular target: T1, RARγ (Homo sapiens, UniProt P13631); assay: Agonist activity on RARγ, dual luciferase reporter gene assay in transfected HEK-293 cells; type: cell-based; conditions: for EC50: HEK-293 cells, 24 h incubation, firefly/Renilla luciferase signal; for selectivity on RARγ compared with Trifarotene: RARγ versus RARα, from Table 2; for agonist activity on RARγ compared with Trifarotene: comparison of Table 2 EC50 values
T1 construct: expressed in transfected cells; host or cells: HEK-293 (ATCC #CRL-1573)
T1 sequence (P13631 1-454): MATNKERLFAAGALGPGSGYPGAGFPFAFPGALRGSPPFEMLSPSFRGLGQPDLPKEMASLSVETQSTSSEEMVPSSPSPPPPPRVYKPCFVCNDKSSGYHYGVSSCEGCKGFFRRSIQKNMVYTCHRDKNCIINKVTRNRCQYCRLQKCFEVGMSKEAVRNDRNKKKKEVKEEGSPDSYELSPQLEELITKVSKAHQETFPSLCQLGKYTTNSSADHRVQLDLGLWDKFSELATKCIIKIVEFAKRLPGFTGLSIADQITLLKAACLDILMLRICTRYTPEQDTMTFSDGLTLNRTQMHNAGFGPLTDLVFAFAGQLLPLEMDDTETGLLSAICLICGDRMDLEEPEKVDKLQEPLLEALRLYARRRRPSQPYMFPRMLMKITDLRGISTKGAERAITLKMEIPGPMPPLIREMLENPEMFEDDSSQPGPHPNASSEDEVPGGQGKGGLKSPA
Experimental: (§1) • 1. Day 1: Cell culture. The culture dish was treated with trypsin, and then cells at an appropriate concentration were inoculated into 10 mL of culture medium. Cell culture conditions: 37° C., 5% CO2, humid environment. • 2. Day 3: Transfection with FuGENE transfection reagent. A transfection mixture was prepared using the method of the supplier's instructions, then the tube was shaken vigorously to mix well, and the transfection mixture was left to incubate for 15 minutes at room temperature. The mixture was treated with trypsin to determine the cell density, and the cell suspension was appropriately diluted to the appropriate volume and density. The appropriate transfection reagent mixture was added thereto, and the cell suspension was added to a 96-well plate at 100 μL per well. The 96-well plate was incubated for 24 hours under the cell culture conditions in step 1. • 3. Day 4: Addition of test compound. The compound was formulated into a DMSO stock solution at a concentration of 210× and diluted to make a solution at a concentration of 21× by the addition of 9 times the amount of solvent. 5 μL of the compound solution at a concentration of 21× was added to each well and incubated for 24 hours under the same conditions as step 1. • 4. Day 5: Plate reading. The Dual Luciferase Reporter Gene Assay System was left at room temperature for 30 minutes prior to use, and […] was added to each well of the 96-well plate to detect the intensity of firefly luciferin in an appropriate manner. Afterwards, Stop&Glo reagent was added to detect the intensity of Renilla luciferin. • 5. Data processing. Signal=intensity of firefly luciferin/intensity of Renilla luciferin, multiple of agonist activation=compound signal/baseline signal (the intensity of the baseline signal was obtained from DMSO solution without the compound). pEC50 values were obtained by processing the data with GraphPad Prism, which were further converted to EC50 values.

[3] = molecular target: T2, RARα (Homo sapiens, UniProt P10276); assay: Agonist activity on RARα, dual luciferase reporter gene assay in transfected HEK-293 cells; type: cell-based; conditions: 24 h incubation, firefly/Renilla luciferase signal
T2 construct: expressed in transfected cells; host or cells: HEK-293 (ATCC #CRL-1573)
T2 sequence (P10276 1-462): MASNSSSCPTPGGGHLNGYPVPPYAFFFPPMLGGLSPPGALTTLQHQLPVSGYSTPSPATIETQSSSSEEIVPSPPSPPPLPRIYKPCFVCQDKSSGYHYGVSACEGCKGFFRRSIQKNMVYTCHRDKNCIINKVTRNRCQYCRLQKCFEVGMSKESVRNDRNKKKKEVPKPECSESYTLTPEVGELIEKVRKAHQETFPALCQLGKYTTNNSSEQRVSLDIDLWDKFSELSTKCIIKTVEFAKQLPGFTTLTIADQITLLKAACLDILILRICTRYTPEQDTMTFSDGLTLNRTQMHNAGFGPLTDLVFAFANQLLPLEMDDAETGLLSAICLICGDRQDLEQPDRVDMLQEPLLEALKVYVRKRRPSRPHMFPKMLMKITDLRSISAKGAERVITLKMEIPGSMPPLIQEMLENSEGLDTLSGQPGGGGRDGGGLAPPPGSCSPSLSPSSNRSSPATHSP
Experimental: as §1

[4] = tested on: human hepatocytes; conditions: 10 µM
Experimental: as §2, §3, §4

Compound: CC(C)(C)c1cc(-c2cc(-c3ccc(C(=O)O)cc3)ccc2OCCO)ccc1N1CCCC1 [Trifarotene]
- prototype compound remaining after 240 minutes of incubation in hepatocytes ([1]; human hepatocytes): 13.57%
- Normalized area (240 minutes), prototype compound peak (molecular weight shift 0.00) ([1]; 10 μM): 13.57%
- Normalized area (240 minutes), Peak 3 of Trifarotene (molecular weight shift 16.00) ([1]; human hepatocytes, 10 μM, metabolite peak m/z 476.24): 54.29%
- Normalized area (240 minutes), Peak 1 of Trifarotene (molecular weight shift 31.99) ([1]; human hepatocytes, 10 μM, metabolite peak m/z 492.24, retention time 4.18 minutes): 9.35%
- Normalized area (240 minutes), Peak 4 of Trifarotene (molecular weight shift 31.99) ([1]; human hepatocytes, 10 μM, metabolite peak m/z 492.24, retention time 7.76 minutes): 9.10%
- Normalized area (240 minutes), Peak 2 of Trifarotene (molecular weight shift 192.03) ([1]; human hepatocytes, 10 μM, metabolite peak m/z 652.27): 9.98%

Compound: C[Si]1(C)CC[Si](C)(C)c2cc(-c3cc(-c4ccc(C(=O)O)cc4)ccc3OCCO)ccc21 [Compound I-5, 4′-(2-hydroxyethoxy)-3′-(1,1,4,4-tetramethyl-1,2,3,4-tetrahydrobenzo[b][1,4]disilan-6-yl)-[1,1′-biphenyl]-4-carboxylic acid]
- EC50 [2]: 1.05 nM
- selectivity on RARγ compared with Trifarotene [2]: better than that of Trifarotene
- agonist activity on RARγ compared with Trifarotene [2]: equal to or stronger than that of Trifarotene
- EC50 [3]: 18.5 nM

Compound: C[Si](C)(C)c1cc(-c2cc(-c3ccc(C(=O)O)cc3)ccc2OCCCCO)ccc1N1CCCC1 [Compound I-3, 4′-(4-hydroxybutoxy)-4″-(pyrrolidin-1-yl)-3″-(trimethylsilyl)-[1,1′:3′,1″-terphenyl]-4-carboxylic acid]
- EC50 [2]: 9.08 nM
- selectivity on RARγ compared with Trifarotene [2]: better than that of Trifarotene
- EC50 [3]: 382 nM

Compound: C[Si](C)(C)c1cc(-c2cc(-c3ccc(C(=O)O)cc3)ccc2OCCO)ccc1N1CCCC1 [Compound I-1, 4′-(2-hydroxyethoxy)-4′-(pyrrolidin-1-yl)-3′-(trimethylsilyl)-[1,1′:3′,1′-terphenyl]-4-carboxylic Acid]
- Normalized area (240 minutes), Peak 4 of compound I-1 (molecular weight shift 0.02) [4]: 68.15%
- EC50 [2]: 0.88 nM
- selectivity on RARγ compared with Trifarotene [2]: better than that of Trifarotene
- agonist activity on RARγ compared with Trifarotene [2]: equal to or stronger than that of Trifarotene
- EC50 [3]: 64 nM
- prototype compound remaining after 240 minutes of incubation in hepatocytes ([1]; human hepatocytes): less than 1%
- Normalized area (240 minutes), prototype compound peak (molecular weight shift 0.00) ([1]; 10 μM): 0.12%

Compound: C[Si](C)(C)c1cc(-c2cc(-c3ccc(C(=O)O)cc3)ccc2OCCCO)ccc1N1CCCC1 [Compound I-2, 4′-(3-hydroxypropoxy)-4″-(pyrrolidin-1-yl)-3″-(trimethylsilyl)-[1,1′:3′,1″-terphenyl]-4-carboxylic acid]
- EC50 [2]: 0.77 nM
- selectivity on RARγ compared with Trifarotene [2]: better than that of Trifarotene
- agonist activity on RARγ compared with Trifarotene [2]: equal to or stronger than that of Trifarotene
- EC50 [3]: 15.5 nM
